Results as given in the OligoGym collection.
Where “and” joins values, the source holds several entries; their conditions need not be identical. Equal entries are not always repeated. After the bases stand the sugars from the 5' end (letter, count) and the backbone: PS all phosphorothioate, else s phosphorothioate and o phosphodiester by linkage. HELM strings list units from the 5' end as sugar, base in round brackets, then linkage (d deoxyribose, r ribose, m 2'-O-methyl, p phosphodiester). Methylation of C is not given here. [moe] = 2'-O-(2-methoxyethyl) (MOE); [cEt] = constrained ethyl (cEt); [sp] = phosphorothioate linkage; e = 2'-O-(2-methoxyethyl) (MOE); k = constrained ethyl (cEt); d = 2'-deoxy (DNA)

Tests used:
IRF5 = conditions: ASO
HBV = conditions: ASO

Substance: AAGATGGTGTTATCTC (sugars k3 d10 k3, PS)
- target mRNA inhibition (IRF5; KARPAS-229, 4 µM): 0%

Substance: AAGGGCACAGACGCAGG (sugars k3 d10 k3 d1, PS)
- target mRNA inhibition (IRF5; KARPAS-229, 4 µM): 0%

Substance: AAGGGCACAGCGCAGG (sugars k2 d11 k3, PS)
- target mRNA inhibition (IRF5; KARPAS-229, 4 µM): 0% and 2%

Substance: AAGGGCACAGCGCAGG (sugars kddddddddddkekek, PS)
- target mRNA inhibition (IRF5; KARPAS-229, 4 µM): 0%

Substance: AAGGGCACAGCGCAGG (sugars kkdddddddddkekek, PS)
- target mRNA inhibition (IRF5; KARPAS-229, 4 µM): 0%

Substance: ACATCTCCACATCAGT (sugars k2 d8 e4 k2, PS)
- target mRNA inhibition (IRF5; KARPAS-229, 4 µM): 24%

Substance: ACATCTCCACATCAGT (sugars kkdddddddddkekek, PS)
- target mRNA inhibition (IRF5; KARPAS-229, 4 µM): 16%

Substance: ACCACTGTGTACCCCA (sugars k3 d9 k3 e1, PS)
- target mRNA inhibition (IRF5; KARPAS-229, 4 µM): 47%

Substance: ACCACTGTGTACCCCA (sugars kddddddddddkekek, PS)
- target mRNA inhibition (IRF5; KARPAS-229, 4 µM): 43%

Substance: ACCATTCTATGCCTTT (sugars k3 d9 k3 e1, PS)
- target mRNA inhibition (IRF5; KARPAS-229, 0.44444 µM): 33%
- target mRNA inhibition (IRF5; KARPAS-229, 1.33333 µM): 56%
- target mRNA inhibition (IRF5; KARPAS-229, 4 µM): 59% and 61%
- target mRNA inhibition (IRF5; KARPAS-229, 12 µM): 75%

Substance: ACCATTCTATGCCTTT (sugars kekdddddddddeekk, PS)
- target mRNA inhibition (IRF5; KARPAS-229, 4 µM): 51%

Substance: RNA1{[moe](T)[sp].[cEt](A)[sp].[cEt](G)[sp].d(G)[sp].d(C)[sp].d(A)[sp].d(G)[sp].d(A)[sp].d(G)[sp].d(G)[sp].d(T)[sp].d(G)[sp].d(A)[sp].[cEt](A)[sp].[cEt](A)[sp].[moe](A)}$$$$V2.0
- target mRNA inhibition (HBV; HepG2, 0.07 µM): 31% and 28%

Substance: RNA1{[moe](T)[sp].[cEt](C)[sp].[cEt](A)[sp].d(G)[sp].d(C)[sp].d(A)[sp].d(A)[sp].d(A)[sp].d(C)[sp].d(A)[sp].d(C)[sp].d(T)[sp].d(T)[sp].[cEt](G)[sp].[cEt](G)[sp].[moe](C)}$$$$V2.0
- target mRNA inhibition (HBV; HepG2, 0.07 µM): 67% and 71%

Substance: RNA1{[moe](T)[sp].[cEt](C)[sp].d(C)[sp].d(G)[sp].d(C)[sp].d(A)[sp].d(G)[sp].d(T)[sp].d(A)[sp].d(T)[sp].d(G)[sp].d(G)[sp].[cEt](A)[sp].[moe](T)[sp].[cEt](C)[sp].[moe](G)}$$$$V2.0
- target mRNA inhibition (HBV; HepG2, 0.0092593 µM): 33%
- target mRNA inhibition (HBV; HepG2, 0.0277778 µM): 56%
- target mRNA inhibition (HBV; HepG2, 0.07 µM): 85% and 81%
- target mRNA inhibition (HBV; HepG2, 0.0833333 µM): 80%
- target mRNA inhibition (HBV; HepG2, 0.25 µM): 92%

Substance: RNA1{[moe](T)[sp].[cEt](G)[sp].[cEt](A)[sp].d(G)[sp].d(G)[sp].d(C)[sp].d(A)[sp].d(T)[sp].d(A)[sp].d(G)[sp].d(C)[sp].d(A)[sp].d(G)[sp].[cEt](C)[sp].[cEt](A)[sp].[moe](G)}$$$$V2.0
- target mRNA inhibition (HBV; HepG2, 0.07 µM): 68% and 61%

Substance: RNA1{[moe](T)[sp].[moe](C)[sp].[moe](C)[sp].[moe](G)[sp].[moe](C)[sp].d(A)[sp].d(G)[sp].d(T)[sp].d(A)[sp].d(T)[sp].d(G)[sp].d(G)[sp].d(A)[sp].d(T)[sp].[moe](C)[sp].[moe](G)[sp].[moe](G)}$$$$V2.0
- target mRNA inhibition (HBV; HepG2, 0.07 µM): 77% and 68%

Substance: RNA1{[moe](T)[sp].[moe](C)[sp].[moe](C)[sp].[moe](G)[sp].d(C)[sp].d(A)[sp].d(G)[sp].d(T)[sp].d(A)[sp].d(T)[sp].d(G)[sp].d(G)[sp].d(A)[sp].[moe](T)[sp].[moe](C)[sp].[moe](G)}$$$$V2.0
- target mRNA inhibition (HBV; HepG2, 0.07 µM): 71% and 73%

Substance: RNA1{[moe](T)[sp].[moe](C)[sp].[moe](C)[sp].d(A)[sp].d(C)[sp].d(C)[sp].d(A)[sp].d(C)[sp].d(G)[sp].d(A)[sp].d(G)[sp].d(T)[sp].d(C)[sp].[cEt](T)[sp].[cEt](A)[sp].[cEt](G)}$$$$V2.0
- target mRNA inhibition (HBV; HepG2, 0.07 µM): 42% and 67%

Substance: RNA1{[moe](T)[sp].[moe](C)[sp].[moe](C)[sp].d(G)[sp].d(C)[sp].d(A)[sp].d(G)[sp].d(T)[sp].d(A)[sp].d(T)[sp].d(G)[sp].d(G)[sp].[moe](A)[sp].[moe](T)[sp].[moe](C)[sp].[moe](G)[sp].[moe](G)}$$$$V2.0
- target mRNA inhibition (HBV; HepG2, 0.07 µM): 68% and 58%

Substance: RNA1{[moe](T)[sp].[moe](C)[sp].[moe](C)[sp].d(G)[sp].d(C)[sp].d(A)[sp].d(G)[sp].d(T)[sp].d(A)[sp].d(T)[sp].d(G)[sp].d(G)[sp].d(A)[sp].[cEt](T)[sp].[cEt](C)[sp].[cEt](G)}$$$$V2.0
- target mRNA inhibition (HBV; HepG2, 0.07 µM): 73% and 53%
